Reference: patent publication US8278345B2, “Inhibitors of glutaminyl cyclase” (Probiodrug AG, priority 2006, dated 2012)

Target: hQC (Homo sapiens, UniProt Q16769)
Experiment: Inhibitor assay for glutaminyl cyclase activity (fluorometric, H-Gln-βNA / H-Gln-AMC)
Format: biochemical
Conditions: compound from preparative synthesis, purified; read-out: IC50 hQC
In short: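 Ki values came from fitting progress curves to a competitive inhibition model; rapid screens used 4 mM inhibitor with substrate at KM. QC activity was read at 30 °C via auxiliary pyroglutamyl aminopeptidase releasing βNA (0.2 mM H-Gln-βNA, 0.2 M Tris pH 8.0, 20 mM EDTA) or AMC (0.05 M Tris pH 8.0, 5 mM EDTA).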

Sequence of hQC (Q16769 29-361): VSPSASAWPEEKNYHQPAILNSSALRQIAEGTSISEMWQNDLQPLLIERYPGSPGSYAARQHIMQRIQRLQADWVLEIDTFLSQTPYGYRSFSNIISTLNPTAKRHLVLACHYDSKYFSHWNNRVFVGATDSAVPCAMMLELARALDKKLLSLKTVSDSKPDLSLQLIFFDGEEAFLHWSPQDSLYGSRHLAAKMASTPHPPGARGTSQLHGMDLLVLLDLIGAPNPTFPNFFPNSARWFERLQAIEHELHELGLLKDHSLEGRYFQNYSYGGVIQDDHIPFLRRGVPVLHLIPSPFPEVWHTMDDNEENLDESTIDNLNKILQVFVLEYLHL

| IC50 | Compound |
| --- | --- |
| 698 nM | CCCCCC1=C(O)C(=O)N(CCCn2ccnc2)C1c1cccc(O)c1 (centres unmarked) [Compound 219, 3-Hydroxy-5-(3-hydroxy-phenyl)-1-(3-imidazol-1-yl-propyl)-4-pentyl-1,5-dihydro-pyrrol-2-one] |

Same assay, conditions: read-out: IC50

| IC50 | Compound |
| --- | --- |
| 1300 nM | CCCCCC1=C(O)C(=O)N(CCCn2ccnc2)C1CC (centres unmarked) [Compound 215, 5-Ethyl-3-hydroxy-1-(3-imidazol-1-yl-propyl)-4-pentyl-1,5-dihydro-pyrrol-2-one] |
| 4900 nM | CC(C)C1=C(O)C(=O)N(CCCn2ccnc2)C1c1cccc(O)c1 (centres unmarked) [Compound 75, 3-Hydroxy-5-(3-hydroxy-phenyl)-1-(3-imidazol-1-yl-propyl)-4-isopropyl-1,5-dihydro-pyrrol-2-one] |
| 5170 nM | CCCC(=O)C1=C(O)C(=O)N(c2ccc3[nH]cnc3c2)C1CCC (centres unmarked) [Compound 313, 1-(1H-Benzoimidazol-5-yl)-4-butyryl-3-hydroxy-5-propyl-1,5-dihydro-pyrrol-2-one] |
| 40 nM | CCC1=C(O)C(=O)N(CCCn2ccnc2)C1c1ccc(OC)cc1 (centres unmarked) [Compound 229, 4-Ethyl-3-hydroxy-1-(3-imidazol-1-yl-propyl)-5-(4-methoxy-phenyl)-1,5-dihydro-pyrrol-2-one] |
| 2200 nM | CCCCC1C(C)=C(O)C(=O)N1CCCn1ccnc1 (centres unmarked) [Compound 48, 5-Butyl-3-hydroxy-1-(3-imidazol-1-yl-propyl)-4-methyl-1,5-dihydro-pyrrol-2-one] |
| 400 nM | CCCCCC1=C(O)C(=O)N(CCCn2ccnc2)C1CO (centres unmarked) [Compound 211, 3-Hydroxy-5-hydroxymethyl-1-(3-imidazol-1-yl-propyl)-4-pentyl-1,5-dihydro-pyrrol-2-one] |
| 400 nM | O=C(O)c1ccc(C2C(C(=O)C3CC3)=C(O)C(=O)N2c2ccc3[nH]cnc3c2)o1 (centres unmarked) [Compound 308, 5-[1-(1H-Benzoimidazol-5-yl)-3-cyclopropanecarbonyl-4-hydroxy-5-oxo-2,5-dihydro-1H-pyrrol-2-yl]-furan-2-carboxylic acid] |
| 400 nM | CCC1=C(O)C(=O)N(CCCn2ccnc2)C1c1c[nH]c2cc(C)ccc12 (centres unmarked) [Compound 239, 4-Ethyl-3-hydroxy-1-(3-imidazol-1-yl-propyl)-5-(6-methyl-1H-indol-3-yl)-1,5-dihydro-pyrrol-2-one] |
| 5800 nM | CCCC1C(C(C)C)=C(O)C(=O)N1CCCn1ccnc1 (centres unmarked) [Compound 55, 3-Hydroxy-1-(3-imidazol-1-yl-propyl)-4-isopropyl-5-propyl-1,5-dihydro-pyrrol-2-one] |
| 400 nM | CCC1=C(O)C(=O)N(CCCn2ccnc2)C1c1cccc(O)c1 (centres unmarked) [Compound 252, 4-Ethyl-3-hydroxy-5-(3-hydroxy-phenyl)-1-(3-imidazol-1-yl-propyl)-1,5-dihydro-pyrrol-2-one] |
| 400 nM | O=C1C(O)=C(c2c[nH]c3ccccc23)C(c2cccc(O)c2)N1CCCn1ccnc1 (centres unmarked) [Compound 146, 3-Hydroxy-5-(3-hydroxy-phenyl)-1-(3-imidazol-1-yl-propyl)-4-(1H-indol-3-yl)-1,5-dihydro-pyrrol-2-one] |
| 1660 nM | CCCCCC1=C(O)C(=O)N(c2ccc3[nH]cnc3c2)C1c1cccc(F)c1 (centres unmarked) [Compound 323, 1-(1H-Benzoimidazol-5-yl)-5-(3-fluoro-phenyl)-3-hydroxy-4-pentyl-1,5-dihydro-pyrrol-2-one] |
| 2200 nM | CC1=C(O)C(=O)N(CCCn2ccnc2)C1c1ccc(C)cc1 (centres unmarked) [Compound 21, 3-Hydroxy-1-(3-imidazol-1-yl-propyl)-4-methyl-5-p-tolyl-1,5-dihydro-pyrrol-2-one] |
| 3100 nM | CC(C)C1=C(O)C(=O)N(CCCn2ccnc2)C1c1cccc(Cl)c1 (centres unmarked) [Compound 73, 5-(3-Chloro-phenyl)-3-hydroxy-1-(3-imidazol-1-yl-propyl)-4-isopropyl-1,5-dihydro-pyrrol-2-one] |
| 7960 nM | CC(C)CC(=O)C1=C(O)C(=O)N(c2ccc3[nH]cnc3c2)C1c1cc[nH]n1 (centres unmarked) [Compound 427, 1-(1H-Benzoimidazol-5-yl)-3-hydroxy-4-(3-methyl-butyryl)-5-(1H-pyrazol-3-yl)-1,5-dihydro-pyrrol-2-one] |
| 2110 nM | CC(=O)C1=C(O)C(=O)N(c2ccc3[nH]cnc3c2)C1c1cccc(C)n1 (centres unmarked) [Compound 330, 4-Acetyl-1-(1H-benzoimidazol-5-yl)-3-hydroxy-5-(6-methyl-pyridin-2-yl)-1,5-dihydro-pyrrol-2-one] |
| 6430 nM | O=C(O)CC1=C(O)C(=O)N(c2ccc3[nH]cnc3c2)C1c1csc2ccccc12 (centres unmarked) [Compound 408, [2-Benzo[b]thiophen-3-yl-1-(1H-benzoimidazol-5-yl)-4-hydroxy-5-oxo-2,5-dihydro-1H-pyrrol-3-yl]-acetic acid] |
| 1300 nM | CC(C)/C=C/C1C(c2c[nH]c3ccccc23)=C(O)C(=O)N1CCCn1ccnc1 (centres unmarked) [Compound 118, 3-Hydroxy-1-(3-imidazol-1-yl-propyl)-4-(1H-indol-3-yl)-5-(3-methyl-but-1-enyl)-1,5-dihydro-pyrrol-2-one] |
| 2560 nM | CCCCCC(=O)C1=C(O)C(=O)N(c2ccc3[nH]cnc3c2)C1c1ccc(C)o1 (centres unmarked) [Compound 258, 1-(1H-Benzoimidazol-5-yl)-4-hexanoyl-3-hydroxy-5-(5-methyl-furan-2-yl)-1,5-dihydro-pyrrol-2-one] |

| IC50 | Compound |
| --- | --- |
| 3100 nM | CCCCCC1=C(O)C(=O)N(CCCn2ccnc2)C1c1c(O)ccc2ccccc12 (centres unmarked) [Compound 207, 3-Hydroxy-5-(2-hydroxy-naphthalen-1-yl)-1-(3-imidazol-1-yl-propyl)-4-pentyl-1,5-dihydro-pyrrol-2-one] |
| 8320 nM | CCC1=C(O)C(=O)N(c2ccc3[nH]cnc3c2)C1c1ccc(N2CCCC2)cc1 (centres unmarked) [Compound 406, 1-(1H-Benzoimidazol-5-yl)-4-ethyl-3-hydroxy-5-(4-pyrrolidin-1-yl-phenyl)-1,5-dihydro-pyrrol-2-one] |
| 40 nM | O=C1C(O)=C(c2ccccc2)C(c2c[nH]c3ccccc23)N1CCCn1ccnc1 (centres unmarked) [Compound 97, 3-Hydroxy-1-(3-imidazol-1-yl-propyl)-5-(1H-indol-3-yl)-4-phenyl-1,5-dihydro-pyrrol-2-one] |
| 400 nM | CCCCC1C(c2c[nH]c3ccccc23)=C(O)C(=O)N1CCCn1ccnc1 (centres unmarked) [Compound 141, 5-Butyl-3-hydroxy-1-(3-imidazol-1-yl-propyl)-4-(1H-indol-3-yl)-1,5-dihydro-pyrrol-2-one] |
| 5260 nM | O=C(C1=C(O)C(=O)N(c2ccc3[nH]cnc3c2)C1c1cc[nH]n1)C1CCCCC1 (centres unmarked) [Compound 379, 1-(1H-Benzoimidazol-5-yl)-4-cyclohexanecarbonyl-3-hydroxy-5-(1H-pyrazol-3-yl)-1,5-dihydro-pyrrol-2-one] |
| 40 nM | CCCCCC1=C(O)C(=O)N(CCCn2ccnc2)C1c1cccc(O)c1 (centres unmarked) [Compound 219, 3-Hydroxy-5-(3-hydroxy-phenyl)-1-(3-imidazol-1-yl-propyl)-4-pentyl-1,5-dihydro-pyrrol-2-one] |
| 2200 nM | O=C1C(O)=C(c2cccc(O)c2)C(c2cc(Cl)cc(Cl)c2O)N1CCCn1ccnc1 (centres unmarked) [Compound 4, 5-(3,5-Dichloro-2-hydroxy-phenyl)-3-hydroxy-4-(3-hydroxy-phenyl)-1-(3-imidazol-1-yl-propyl)-1,5-dihydro-pyrrol-2-one] |
| 1390 nM | CCCCCC(=O)C1=C(O)C(=O)N(c2ccc3[nH]cnc3c2)C1c1cccc(C)c1 (centres unmarked) [Compound 411, 1-(1H-Benzoimidazol-5-yl)-4-hexanoyl-3-hydroxy-5-m-tolyl-1,5-dihydro-pyrrol-2-one] |
| 760 nM | Cc1cccc(C2C(c3c[nH]c4ccccc34)=C(O)C(=O)N2c2ccc3[nH]cnc3c2)n1 (centres unmarked) [Compound 385, 1-(1H-Benzoimidazol-5-yl)-3-hydroxy-4-(1H-indol-3-yl)-5-(6-methyl-pyridin-2-yl)-1,5-dihydro-pyrrol-2-one] |
| 1300 nM | O=C1C(O)=C(c2cccc(O)c2)C(C2CC2)N1CCCn1ccnc1 (centres unmarked) [Compound 19, 5-Cyclopropyl-3-hydroxy-4-(3-hydroxy-phenyl)-1-(3-imidazol-1-yl-propyl)-1,5-dihydro-pyrrol-2-one] |
| 400 nM | CCCCCC1=C(O)C(=O)N(CCCn2ccnc2)C1C(O)CO (centres unmarked) [Compound 189, 5-(1,2-Dihydroxy-ethyl)-3-hydroxy-1-(3-imidazol-1-yl-propyl)-4-pentyl-1,5-dihydro-pyrrol-2-one] |
| 1300 nM | CCC1=C(O)C(=O)N(CCCn2ccnc2)C1c1ccco1 (centres unmarked) [Compound 247, 4-Ethyl-5-furan-2-yl-3-hydroxy-1-(3-imidazol-1-yl-propyl)-1,5-dihydro-pyrrol-2-one] |
| 4720 nM | O=C1C(O)=C(c2c[nH]c3ccccc23)C(c2coc3ccccc3c2=O)N1c1ccc2[nH]cnc2c1 (centres unmarked) [Compound 357, 1-(1H-Benzoimidazol-5-yl)-3-hydroxy-4-(1H-indol-3-yl)-5-(4-oxo-4H-chromen-3-yl)-1,5-dihydro-pyrrol-2-one] |
| 1300 nM | CCC1=C(O)C(=O)N(CCCn2ccnc2)C1c1ccc(CO)o1 (centres unmarked) [Compound 234, 4-Ethyl-3-hydroxy-5-(5-hydroxymethyl-furan-2-yl)-1-(3-imidazol-1-yl-propyl)-1,5-dihydro-pyrrol-2-one] |
| 670 nM | O=C1C(O)=C(c2c[nH]c3ccccc23)C(c2ccc(CO)o2)N1c1ccc2[nH]cnc2c1 (centres unmarked) [Compound 409, 1-(1H-Benzoimidazol-5-yl)-3-hydroxy-5-(5-hydroxymethyl-furan-2-yl)-4-(1H-indol-3-yl)-1,5-dihydro-pyrrol-2-one] |
| 40 nM | O=C1C(O)=C(c2ccc(O)cc2)C(c2ccco2)N1CCCn1ccnc1 (centres unmarked) [Compound 176, 5-Furan-2-yl-3-hydroxy-4-(4-hydroxy-phenyl)-1-(3-imidazol-1-yl-propyl)-1,5-dihydro-pyrrol-2-one] |
| 400 nM | O=C1C(O)=C(c2ccc(O)cc2)C(C(O)CO)N1CCCn1ccnc1 (centres unmarked) [Compound 152, 5-(1,2-Dihydroxy-ethyl)-3-hydroxy-4-(4-hydroxy-phenyl)-1-(3-imidazol-1-yl-propyl)-1,5-dihydro-pyrrol-2-one] |
| 400 nM | O=C1C(O)=C(c2c[nH]c3ccccc23)C(C2CC2)N1CCCn1ccnc1 (centres unmarked) [Compound 139, 5-Cyclopropyl-3-hydroxy-1-(3-imidazol-1-yl-propyl)-4-(1H-indol-3-yl)-1,5-dihydro-pyrrol-2-one] |
